Laboratory results taken from patent US12171797B2, “Composition for ameliorating premenstrual syndrome symptoms, including chrysanthemum zawadskii extract” (GENENCELL INC., priority 2019, dated 2024).

System: hyperprolactinemia-induced female rats
Assay: Hyperprolactinemia-induced (metoclopramide) animal model of premenstrual syndrome, serum prolactin and progesterone by ELISA
Assay type: in vivo
Conditions: 50 mg/kg metoclopramide to the abdominal cavity for 5 days
Description: Metoclopramide is used as an antiemetic drug, and increases the secretion of prolactin by inhibiting dopamine secretion, and accordingly, it is known as a drug that inhibits the secretion of progesterone, luteinizing hormone, and follicle-stimulating hormone (Wang et al., 2014). Therefore, in the present invention, 50 mg/kg of metoclopramide was administered to the abdominal cavity of female rats for 5 days, after which hyperprolactinemia was induced to establish an animal model of premenstrual syndrome caused by hormone secretion disorder. Rats (females) were obtained from Raonbio, and were acclimatized for 1 week while general solid feed and water were freely supplied thereto. The environmental conditions of the animal room were set to a temperature of 23±3° C., a relative humidity of 50±10%, a lighting time of 12 hours (8 am to 8 pm), a ventilation frequency of 10 to 20 times/hour, and an illumination intensity of 150 to 300 Lux. During the experiment, the temperature and humidity of the animal room were automatically controlled using a thermo-hygrostat. […] After termination of the experiment, blood was collected, serum was isolated therefrom, and the amounts of secreted prolactin and progesterone in the serum were measured using an ELISA kit. […]

CCN(CC)CCNC(=O)c1cc(Cl)c(N)cc1OC [metoclopramide, Metoclopramide]
Prolactin levels in the serum after model induction (FIG. 1): increased | Progesterone levels in the serum after model induction (fraction of normal) (FIG. 2): about ⅕
